In ChEMBL document CHEMBL5107949, “Design, synthesis, and antibacterial activity of N-(trifluoromethyl)phenyl substituted pyrazole derivatives” (RSC Med Chem, 2021):
In brackets after ≈: the same amount, converted by molar mass.

How the values were obtained:
Enterococcus faecalis [1] = assay: Antibacterial activity against antibiotic susceptible Enterococcus faecalis ATCC 29212 assessed as inhibition of bacterial growth by CLSI protocol based broth microdilution method; type: functional
Staphylococcus aureus [2] = assay: Bactericidal activity against Staphylococcus aureus ATCC 700699 assessed as bacteria elimination at 4 times MIC and measured after 6 hrs by time-kill assay; type: functional
[3] = Cytotoxicity against human HEK293 cells reduction in cell viability incubated for 24 hrs by resazurin cell viability assay; type: toxicity, cell-based
Staphylococcus aureus [4] = assay: Antibacterial activity against Staphylococcus aureus clinical isolate 1088626 assessed as inhibition of bacterial growth by CLSI protocol based broth microdilution method; type: functional
Staphylococcus aureus [5] = assay: Inhibition of RNA synthesis in Staphylococcus aureus ATCC 29213 at MIC preincubated for 30 mins followed by [3H]-uridine and measured after 30 mins by [3H]-uridine incorporation based beta scintillation counter analysis; type: functional; settings: time 60 min; 1 h
Staphylococcus aureus [6] = assay: Anti-biofilm activity against Staphylococcus aureus ATCC 25923 assessed as eradication of biofilm formation incubated for 24 hrs by Calgary biofilm device assay; type: functional; settings: Staphylococcus aureus, ATCC 25923
[7] = tested on: Staphylococcus epidermidis; assay: Antibacterial activity against antibiotic resistant Staphylococcus epidermidis ATCC 700296 assessed as inhibition of bacterial growth by CLSI protocol based broth microdilution method; type: functional
Staphylococcus aureus [8] = assay: Antibacterial activity against antibiotic resistant Staphylococcus aureus ATCC 700699 assessed as inhibition of bacterial growth by CLSI protocol based broth microdilution method; type: functional
Staphylococcus aureus [9] = assay: Inhibition of protein synthesis in Staphylococcus aureus ATCC 29213 at 0.5 times MIC preincubated for 30 mins followed by [3H]-leucine and measured after 40 mins by [3H]-leucine incorporation based beta scintillation counter analysis; type: functional; settings: time 70.0 min
Staphylococcus aureus [10] = assay: Inhibition of lipid synthesis in Staphylococcus aureus ATCC 29213 at 0.25 times MIC preincubated for 30 mins followed by [3H]-glycerol and measured after 50 mins by [3H]-glycerol incorporation based beta scintillation counter analysis; type: functional; settings: time 80 min; 1.333 h
Enterococcus faecalis [11] = assay: Antibacterial activity against Enterococcus faecalis clinical isolate 1088051 assessed as inhibition of bacterial growth by CLSI protocol based broth microdilution method; type: functional
Staphylococcus aureus [12] = assay: Inhibition of protein synthesis in Staphylococcus aureus ATCC 29213 at MIC preincubated for 30 mins followed by [3H]-leucine and measured after 40 mins by [3H]-leucine incorporation based beta scintillation counter analysis; type: functional; settings: time 70.0 min
Staphylococcus aureus [13] = assay: Inhibition of lipid synthesis in Staphylococcus aureus ATCC 29213 at MIC preincubated for 30 mins followed by [3H]-glycerol and measured after 50 mins by [3H]-glycerol incorporation based beta scintillation counter analysis; type: functional; settings: time 80 min; 1.333 h
Staphylococcus aureus [14] = assay: Antibacterial activity against Staphylococcus aureus clinical isolate 1088105 assessed as inhibition of bacterial growth by CLSI protocol based broth microdilution method; type: functional
Enterococcus faecalis [15] = assay: Antibacterial activity against Enterococcus faecalis clinical isolate 1094112 assessed as inhibition of bacterial growth by CLSI protocol based broth microdilution method; type: functional

For `O=C(O)c1ccc(-c2nn(-c3ccc(C(F)(F)F)cc3)cc2CNc2ccc(Br)c(C(F)(F)F)c2)cc1`, the MIC (Enterococcus faecalis [1]) was 3.12 µg/mL (≈ 5.35 µM), the Activity (Staphylococcus aureus [2]) was greater than 99.9% and the IC50 at 24 h [3] was greater than 12 µg/mL. The MIC (Staphylococcus aureus [4]) was 4 µg/mL (≈ 6.85 µM), the “inhibition (INH)” value (Staphylococcus aureus [5]) was 75.5% and the MBEC (Staphylococcus aureus [6]) was 6.25 µg/mL. For the same compound, the MIC [7] was 1.56 µg/mL (≈ 2.67 µM), the MIC (Staphylococcus aureus [8]) was 0.78 µg/mL (≈ 1.33 µM) and the inhibition (Staphylococcus aureus [9]) was 53.3%. For the same compound, the “inhibition (INH)” value (Staphylococcus aureus [10]) was 55.4%, the MIC (Enterococcus faecalis [11]) was 4 µg/mL (≈ 6.85 µM) and the inhibition (Staphylococcus aureus [12]) was 86.1%. For the same compound, the “inhibition (INH)” value (Staphylococcus aureus [13]) was 88.3%, the MIC (Staphylococcus aureus [14]) was 4 µg/mL (≈ 6.85 µM) and the MIC (Enterococcus faecalis [15]) was 8 µg/mL (≈ 13.7 µM).
